Measurements: PubChem BioAssay AID652087 (The Scripps Research Institute Molecular Screening Center, 2013)
Activity calls are given as the source filed them.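 Rule for the calls: active = inhibition above 30%; inactive = inhibition at or below 30%.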

Biological target: Sphingosine 1-phosphate receptor 1 (Homo sapiens) (UniProt P21453)
Test: blockade of S1P-driven S1P1 signalling – cell-based, fluorescence, counter-screen for OPRK1 antagonist project, confirmation (AID 652087)
Conditions: Tango EDG-1-bla U2OS, beta-lactamase FRET, S1P antagonism; at 9 µM; active compounds read high

Sequence of Sphingosine 1-phosphate receptor 1 (Homo sapiens) (P21453 whole entry, looked up): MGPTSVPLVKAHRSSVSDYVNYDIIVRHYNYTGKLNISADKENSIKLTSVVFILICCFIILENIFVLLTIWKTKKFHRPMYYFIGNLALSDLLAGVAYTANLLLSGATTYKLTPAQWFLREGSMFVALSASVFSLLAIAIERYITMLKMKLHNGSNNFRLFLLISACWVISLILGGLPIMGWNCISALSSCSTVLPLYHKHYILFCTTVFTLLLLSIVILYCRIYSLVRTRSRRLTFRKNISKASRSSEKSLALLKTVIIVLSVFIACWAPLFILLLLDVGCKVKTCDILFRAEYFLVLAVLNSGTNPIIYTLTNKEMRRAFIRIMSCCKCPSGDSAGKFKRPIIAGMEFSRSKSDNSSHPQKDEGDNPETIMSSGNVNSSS

Q: Which inhibition does the source give for `COc1ccccc1C1CCN(Cc2ccc3c(c2)CCC(C)(C)O3)CC1` here?
A: -5.53% (inactive)

Q: `Clc1ccc2c(Nc3ccc4c(c3)OCO4)ccnc2c1` was tested. Which inhibition did it give?
A: -9.65% (inactive)

Q: With `O=C(Nc1ccc([N+](=O)[O-])cc1)Nc1csc(-c2cccnc2)n1` as the compound, how does the inhibition read?
A: 5.35% (inactive)

Q: With `C#Cc1cccc(NC(=O)c2sc3nc4c(c(-c5cccs5)c3c2N)CCCC4)c1` as the compound, how does the inhibition read?
A: 46.3%

Q: Which inhibition does the source give for `Brc1ccc(-c2csc(Nc3ccncc3)n2)cc1` here?
A: 65.4%

Q: How did the inhibition turn out when `S=C(NNc1c(Cl)cncc1Cl)Nc1ccc(Cl)cc1Cl` was run?
A: 45.3%

Q: Which inhibition does the source give for `CCCCCCCCCCCC(=O)ON1C(=O)CCC1=O` here?
A: 51.2%

Q: With `N#Cc1cccnc1NNC(=O)COCC(=O)O` as the compound, how does the inhibition read?
A: 86.5%

Q: `C=CCn1c(-c2sc3nnc(-c4ccccc4)c(-c4ccccc4)c3c2N)n[nH]c1=S` was tested. Which inhibition did it give?
A: 33.4%

Q: Which inhibition does the source give for `O=C(Nc1ccc(F)c(Cl)c1)c1cc(Br)ccc1O` here?
A: 51.5%

Q: For `CCCCNc1ccc2c3c(cccc13)C(=O)N(CCCC)C2=O`, which inhibition is on record?
A: 93.5%

Q: Which inhibition does the source give for `CCN(CC)c1ccc(/C=C/c2ccc([N+](=O)[O-])cc2C#N)cc1` here?
A: 55.7%

Q: With `COC(=O)c1cnn(-c2ccc(Cl)cc2)c1C=C(C#N)C#N` as the compound, how does the inhibition read?
A: 45.1%

Q: `O=C(N/C(=C\c1ccc(-c2ccc([N+](=O)[O-])cc2)o1)c1nc2ccccc2[nH]1)c1ccccc1` was tested. Which inhibition did it give?
A: 73.1%

Q: For `CS(=O)(=O)/C(C#N)=C\c1ccc(Cl)s1`, which inhibition is on record?
A: -11.8% (inactive)

Q: For `O=C(Nc1ccc(Cl)cc1Cl)c1cc([N+](=O)[O-])cc2c1-c1ccc([N+](=O)[O-])cc1C2=O`, which inhibition is on record?
A: 63.3%

Q: How did the inhibition turn out when `COc1cc([N+](=O)[O-])c(OC)cc1SCc1n[nH]c(=S)n1-c1ccc(C)cc1` was run?
A: 3.13% (inactive)

Q: With `Cn1c(=O)c2cc3cc(Cl)ccc3nc2c2c(=O)n(-c3ccccc3)c(=O)n(-c3ccccc3)c21` as the compound, how does the inhibition read?
A: 59.2%

Q: Which inhibition does the source give for `O=C(c1cnn(-c2ccc(Cl)cc2)c1C(F)(F)F)N1CCN(c2ncnc3ccsc23)CC1` here?
A: -19.1% (inactive)

Q: How did the inhibition turn out when `CC(CCC(C)OC(=O)c1ccccc1C(=O)O)OC(=O)c1ccccc1C(=O)O` (stereo unspecified) was run?
A: -6.9% (inactive)

Q: `Oc1c(Cl)cc(Cl)cc1C1Nc2cc(Cl)c(C(F)(F)F)cc2N1` (stereo unspecified) was tested. Which inhibition did it give?
A: 38.5%

Q: For `COc1ccccc1NC(=O)NCCN1CCN(Cc2ccccc2)CC1`, which inhibition is on record?
A: 66.8%

Q: For `O=C1c2ccc(Cl)c3c(N4CCSCC4)ccc(c23)C(=O)N1c1ccccc1`, which inhibition is on record?
A: -15.7% (inactive)

Q: For `Nc1c(C(=O)N/N=C/c2ccc3c(c2)OCO3)sc2nnc(-c3ccccc3)c(-c3ccccc3)c12`, which inhibition is on record?
A: 65%

Q: For `NC(=NC(=O)c1cccc(C(F)(F)F)c1)c1ccc(C(F)(F)F)cn1`, which inhibition is on record?
A: 47.1%

Q: `CC1COC(c2cccc([N+](=O)[O-])c2)N1` (stereo unspecified) was tested. Which inhibition did it give?
A: 2.16% (inactive)

Q: `C=CCNC(=S)NNC(=O)c1oc2nc(-c3ccc(Cl)cc3)cc(-c3ccccc3)c2c1N` was tested. Which inhibition did it give?
A: 8.18% (inactive)

Q: Which inhibition does the source give for `COc1ccc([N+](=O)[O-])c(S(=O)(=O)c2ccc(Cl)cc2)n1` here?
A: 12.7% (inactive)

Q: `c1ccc(-c2cc3ncnc(NCc4ccc5c(c4)OCO5)c3s2)cc1` was tested. Which inhibition did it give?
A: 4.01% (inactive)

Q: For `CCOC(=O)C1CCN(Cc2cccc(NC(=O)c3cccs3)c2)CC1`, which inhibition is on record?
A: 15.1% (inactive)

Q: Which inhibition does the source give for `O=C(/C=C/c1cc(-c2ccccc2)c(C(F)(F)F)s1)c1cccs1` here?
A: 23.6% (inactive)

Q: For `CCOC(=O)c1cn[nH]c1NC(=S)Nc1cccc(C(F)(F)F)c1`, which inhibition is on record?
A: 71.7%

Q: For `O=[N+]([O-])c1ccc(N/N=C2\CCOc3ccc(F)cc32)cc1`, which inhibition is on record?
A: 23.2% (inactive)

Q: `COc1cccc(C(=O)c2sc3nsc(SCc4ccc(F)cc4)c3c2N)c1` was tested. Which inhibition did it give?
A: -12.7% (inactive)

Q: How did the inhibition turn out when `COC(=O)c1ccc(/C=C2\C(=O)Nc3ccccc32)n1-c1ccc(F)cc1` was run?
A: 9.9% (inactive)

Q: How did the inhibition turn out when `COc1cccc(/C=C(\C#N)c2ccc([N+](=O)[O-])cc2)c1OC` was run?
A: 52.1%

Q: For `COC(=O)/C=C1\SC(=Nc2ccc(Cl)cc2)N(c2ccc(Cl)cc2)C1=O`, which inhibition is on record?
A: 42.5%

Q: How did the inhibition turn out when `CSc1ccc(/C=C/c2onc(C)c2[N+](=O)[O-])s1` was run?
A: 10.1% (inactive)

Q: For `CCOC(=O)c1cc(C(=O)OC)c(C)nc1N1CCC(NC2CCCCC2O)CC1` (stereo unspecified), which inhibition is on record?
A: -1.54% (inactive)

Q: `CCOC(=O)C1CCN(Cc2cccc(NC(=O)c3ccco3)c2)CC1` was tested. Which inhibition did it give?
A: 15.4% (inactive)

Q: `O=[N+]([O-])c1ccc(N2CCc3ccccc32)cc1` was tested. Which inhibition did it give?
A: 36.8%

Q: For `CC(=O)Nc1onc(C)c1-c1nc(-c2ccc(Cl)cc2Cl)cs1`, which inhibition is on record?
A: -6.28% (inactive)

Q: For `O=[N+]([O-])c1ccc(C2=NN(c3ccccc3)C(c3ccco3)C2)cc1` (stereo unspecified), which inhibition is on record?
A: 124%

Q: How did the inhibition turn out when `O=C(O)C(F)(F)C(F)(F)C(=O)NCc1cccc(Cl)c1` was run?
A: -3.44% (inactive)

Q: How did the inhibition turn out when `CN(C)c1cc(NC(=O)Nc2ccccc2)c2ccccc2n1` was run?
A: -14.9% (inactive)

Q: With `CSc1sc(C(=O)NC(=O)Nc2ccc(Cl)cc2)c2c1-c1nocc1CC2` as the compound, how does the inhibition read?
A: 18.7% (inactive)

Q: With `Nc1c(C(=O)c2ccccc2)sc2nsc(SCCN3CCCC3)c12` as the compound, how does the inhibition read?
A: 27.5% (inactive)

Q: `N#Cc1c(S/C=C(\O)c2cc3ccccc3o2)nc2c(c1C(F)(F)F)CCCC2` was tested. Which inhibition did it give?
A: 14.5% (inactive)

Q: How did the inhibition turn out when `COC(=O)c1cc(-c2ccc(OC)cc2)c(-c2ccc(OC)cc2)s1` was run?
A: 9.19% (inactive)

Q: How did the inhibition turn out when `O=[N+]([O-])c1ccc(N/N=C/c2ccc(-c3cccs3)s2)nc1` was run?
A: 79.4%

Q: How did the inhibition turn out when `COc1ccc(OS(=O)(=O)c2sc(Br)cc2Br)cc1` was run?
A: 11.6% (inactive)

Q: How did the inhibition turn out when `CCOC(=O)c1ccc(N2CC3CCCCN3C2c2cccc(OC)c2O)cc1` (stereo unspecified) was run?
A: -25.2% (inactive)

Q: How did the inhibition turn out when `CCOC(=O)[C@@H](N)CCSC` was run?
A: -3.49% (inactive)

Q: For `CN(C)c1ccc(-n2nnnc2SCc2ccc(Cl)cc2)cc1`, which inhibition is on record?
A: 37.2%

Q: For `N#Cc1cccc(C#N)c1Oc1ccc(N)cc1`, which inhibition is on record?
A: 15.3% (inactive)

Q: `CC(=O)N1CCC(C(=O)O/N=C(\N)c2ccc(Cl)cc2)CC1` was tested. Which inhibition did it give?
A: 16.3% (inactive)

Q: Which inhibition does the source give for `O=[N+]([O-])c1ccc(-c2ccc(/C=N/Nc3ccccc3)o2)cc1` here?
A: 92.1%

Q: Which inhibition does the source give for `O=C(NNC(=O)C(F)(F)F)c1ccc[nH]1` here?
A: -19.8% (inactive)

Q: How did the inhibition turn out when `CN(C)c1cccc2c1c(NC(=O)Nc1ccc(OCc3ccccc3)cc1)nn2C` was run?
A: -0.3% (inactive)

Q: Which inhibition does the source give for `Clc1ccc2nc3c(nc2c1)Nc1ccccc1S3` here?
A: 94.9%

Q: `CCCCCC[n+]1ccccc1/C=C/c1ccc(N(C)C)cc1` was tested. Which inhibition did it give?
A: 99.1%

Q: How did the inhibition turn out when `CC(=O)c1sc2nc(-c3cccs3)cc(C(F)(F)F)c2c1N` was run?
A: 2.13% (inactive)

Q: `Cc1ccc(/C=c2\sc3nc4ccccc4n3c2=O)o1` was tested. Which inhibition did it give?
A: -0.81% (inactive)

Q: How did the inhibition turn out when `O=[N+]([O-])c1c(Sc2ccc(Cl)cc2)ccc2nsnc12` was run?
A: 76.9%

Q: How did the inhibition turn out when `O=c1c2cc(-c3ccccc3)sc2nnn1/N=C/c1cccs1` was run?
A: 15.2% (inactive)

Q: For `O=[N+]([O-])c1ccc(-c2ccc(/C=N/NC(=S)Nc3cccc(F)c3)o2)cc1`, which inhibition is on record?
A: 67.9%
